Data published in the NIST ThermoML archive (doi:10.1021/je7000232).
± gives the expanded uncertainty stated by the source.

What was measured:
[1] = xn = mol fraction of the nth substance listed; conditions: 293.15 K, 101 kPa, Liquid, Capillary tube (Ostwald / Ubbelohde) method
[2] = excess molar enthalpy (molar enthalpy of mixing); xn = mol fraction of the nth substance listed; conditions: 101 kPa, Liquid
[3] = Liquid, Closed cell (Static) method

CC(O)C(=O)[O-].C[N+](C)(C)CCO [choline lactate] + O
[1]
Conditions	viscosity [mPa·s]
x2 = 0.0272	5850
x2 = 0.382	940 ± 440
x2 = 0.546	336 ± 94
x2 = 0.731	75 ± 10
x2 = 0.878	12.5 ± 1.1
x2 = 0.915	6.5 ± 0.4
x2 = 0.941	3.9 ± 0.3

[2]
Conditions	excess molar enthalpy [kcal/mol]
303.15 K, x2 = 0.1585	-0.938 ± 0.0765
303.15 K, x2 = 0.2269	-1.51 ± 0.122
303.15 K, x2 = 0.3051	-2.04 ± 0.165
303.15 K, x2 = 0.3528	-2.4 ± 0.194
303.15 K, x2 = 0.4853	-3.35 ± 0.263
303.15 K, x2 = 0.671	-4.12 ± 0.335
303.15 K, x2 = 0.8719	-4.37 ± 0.359
303.15 K, x2 = 0.9078	-3.55 ± 0.287
303.15 K, x2 = 0.9751	-1.87 ± 0.153
303.15 K, x2 = 0.9878	-0.604 ± 0.0502
313.15 K, x2 = 0.1687	-0.723 ± 0.0598
313.15 K, x2 = 0.2123	-1.1 ± 0.0908
313.15 K, x2 = 0.3065	-1.57 ± 0.127
313.15 K, x2 = 0.3943	-2.11 ± 0.17
313.15 K, x2 = 0.5019	-2.6 ± 0.21
313.15 K, x2 = 0.603	-2.9 ± 0.234
313.15 K, x2 = 0.738	-3.3 ± 0.263
313.15 K, x2 = 0.8794	-3.48 ± 0.287
313.15 K, x2 = 0.9535	-2.47 ± 0.198
313.15 K, x2 = 0.9769	-1.55 ± 0.127
323.15 K, x2 = 0.16	-0.368 ± 0.0311
323.15 K, x2 = 0.2662	-0.649 ± 0.055
323.15 K, x2 = 0.331	-0.856 ± 0.0693
323.15 K, x2 = 0.5059	-1.55 ± 0.127
323.15 K, x2 = 0.6257	-2.15 ± 0.174
323.15 K, x2 = 0.7785	-2.6 ± 0.21
323.15 K, x2 = 0.8805	-2.09 ± 0.17
323.15 K, x2 = 0.9555	-1.1 ± 0.0908
323.15 K, x2 = 0.9884	-0.239 ± 0.021

O [water]
[3]
Conditions	vapor or sublimation pressure [kPa]
303.15 K	4.24 ± 0.33
313.15 K	7.38 ± 0.33
323.15 K	12.34 ± 0.35
